In patent publication US8268854B2, “Aza-beta-carbolines and methods of using same” (The UWM Research Foundation, Inc., priority 2008, dated 2012):

What was measured:
GABAA receptor = assay: PDSP radioligand binding assay (Example 6); conditions: Example 6, written in present tense
Method: Primary and secondary radioligand binding assays are performed. In general, the primary assay is run at very high ligand (compound) concentration as a broad screen to determine whether a compound binds to a particular receptor. If greater than 50% inhibition at 10 μM (high concentration of compound) at a particular receptor is determined, a secondary assay is performed on that receptor. Data from the secondary assay is the binding affinity (Ki value).
A solution of the compound to be tested is prepared as a 1 mg/ml stock in Standard Binding Buffer or dimethyl sulfoxide (DMSO) according to its solubility. A similar stock of a reference compound (positive control) is also prepared. […]
The 250 μL reactions are incubated at room temperature and shielded from light (to prevent photolysis of light-sensitive ligands) for 1.5 hours, then harvested by rapid filtration onto Whatman GF/B glass fiber filters pre-soaked with 0.3% polyethyleneimine using a 96-well Brandel harvester. […] The tubes are capped, labeled, and counted by liquid scintillation counting. For higher throughput assays, bound radioactivity is harvested onto 0.3% polyethyleneimine-treated, 96-well filter mats using a 96-well Filtermate harvester. The filter mats are dried, then scintillant is melted onto the filters, and the radioactivity retained on the filters is counted in a Microbeta scintillation counter. […]

[1] = molecular target: T1, GABAA receptor α3 subtype with β2 and γ2 subunits (Homo sapiens, UniProt P18507+P34903); assay: Competition binding assay with [3H]flunitrazepam; conditions: [3H]flunitrazepam, α3β2γ2, HEKT cells; read-out: GABAA RECEPTOR BINDING α3
T1 construct: expressed in transfected cells; host or cells: HEKT cell line, transient transfection with Fugene 6
Source text: (§1) Bound radioactivity is quantified by liquid scintillation counting.

[2] = molecular target: T2, GABAA receptor α5 subtype with β2 and γ2 subunits (Homo sapiens, UniProt P18507+P31644); assay: Competition binding assay with [3H]flunitrazepam; conditions: [3H]flunitrazepam, α5β2γ2, HEKT cells; read-out: GABAA RECEPTOR BINDING α5
T2 construct: expressed in transfected cells; host or cells: HEKT cell line, transient transfection with Fugene 6
Source text: as §1

[3] = molecular target: T3, GABAA receptor α1 subtype with β2 and γ2 subunits (Homo sapiens, UniProt P14867+P18507); assay: Competition binding assay with [3H]flunitrazepam; conditions: [3H]flunitrazepam, α1β2γ2, HEKT cells; read-out: GABAA RECEPTOR BINDING α1
T3 construct: expressed in transfected cells; host or cells: HEKT cell line, transient transfection with Fugene 6
Source text: as §1

[4] = molecular target: T4, GABAA receptor α2 subtype with β2 and γ2 subunits (Homo sapiens, UniProt P18507+P47869); assay: Competition binding assay with [3H]flunitrazepam; conditions: [3H]flunitrazepam, α2β2γ2, HEKT cells; read-out: GABAA RECEPTOR BINDING α2
T4 construct: expressed in transfected cells; host or cells: HEKT cell line, transient transfection with Fugene 6
Source text: as §1

[5] = test system: BzR/GABAa-ergic receptors; conditions: Example 8, written in present tense

Question: Which results are given for `CC(C)(C)OC(=O)c1cc2c(cn1)[nH]c1cnccc12` [Compound 3, Tert-Butyl pyridine[4′,5′-5,4]pyrrolo[2,3-c]pyridine-3-carboxylate]?
Answer: binding to GABAA receptor (in words) (GABAA receptor): shown to bind to GABAA receptor; Ki [1]: 3.4 nM; Ki [2]: 3.7 nM; Ki [3]: 2.9 nM; Ki [4]: 2.5 nM

Question: Which results are given for “tert-Butyl pyridine[4′,5′-4,5]pyrrolo[3,2-c]pyridine-8-carboxylate [Compound 1]”?
Answer: binding to the BzR/GABAa-ergic receptors (in words) [5]: potently binds; binding to GABAA receptor (in words) (GABAA receptor): shown to bind to GABAA receptor
